Our source for the GI50 and TGI values is PubChem BioAssay (NCI).

Common to all, as to experiment: NCI anticancer screen, dose series, 48 h
The subject of assay [1] is BT-549 breast.
Assay [2] concerns HOP-92 NSCLC.
Assay [3] has as its system LOX IMVI melanoma.
Assay [4] concerns CAKI-1 renal.
The test system of assay [5] is HS 578T breast.
Assay [6] concerns SK-MEL-5 melanoma.
Assay [7] relates to HOP-62 NSCLC.
Assay [8] has as its system SNB-75 CNS.
Assay [9] concerns OVCAR-5 ovarian.
Assay [10] deals with PC-3 prostate.

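Five concentrations, 48 hours, 96-well plates. Abbreviation: GI50, concentration required for 50% inhibition of growth. TGI: total growth inhibition.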

As for `CCOC(=O)c1c(-c2ccccc2)n2c(=O)cc(C)c3c(O)c(O)cc1c32`, the GI50 in assay [1] was 7.08 µM; in assay [2], 10.5 µM; in assay [3], 4.96 µM; in [4], 9.84 µM; in assay [5], 14.7 µM; in [6], 4.44 µM. The GI50 was 11.1 µM in assay [7], 8.95 µM in assay [8], 22.5 µM in assay [9] and 6.94 µM in assay [10]. Also, the TGI in assay [1] came out at 24.1 µM; in assay [2] it was 42.8 µM; in assay [3], 22.8 µM; in [4], 36.2 µM; in assay [5], 56.6 µM; in assay [6], 16.9 µM. In addition, the TGI in [7] came out at 54.5 µM; in assay [8], 88.1 µM; in assay [9], 46.7 µM; in assay [10] it was 26 µM.
Take `Nc1nc2ccc(CNc3ccc(C(=O)NC(CC(=O)O)C(=O)O)cc3)cc2c(=O)[nH]1` (centres undefined): the GI50 in [1] was 4.02 µM; in assay [2], above 51 µM; in assay [3], 0.472 µM; in assay [4], 1.37 µM; in assay [5], above 64.2 µM; in [6] it was 5.35 µM. In addition, the GI50 in assay [8] is above 100 µM; in assay [9], above 47.2 µM; in [10], 0.655 µM. Further, the TGI in assay [1] is above 31 µM; in [2], above 100 µM; in assay [3], above 100 µM; in assay [4], above 100 µM; in [5], above 100 µM; in assay [6], above 100 µM. Besides, the TGI in assay [7], in assay [8], in assay [9] and in [10] was above 100 µM throughout.
For `Nc1c(C(=O)Nc2cccc(Cl)c2)sc2nc3c(cc12)C(O)CCC3` (centres undefined), the GI50 is 3.14 µM in [1]; 0.824 µM in assay [2]; 0.762 µM in [3]; 0.432 µM in assay [4]; 1.62 µM in assay [5]; 0.375 µM in assay [6]. Besides, the GI50 in assay [7] is 0.569 µM; in assay [8] it was 0.373 µM; in assay [9] it was 2.89 µM; in assay [10], 0.416 µM. Moreover, the TGI in assay [1] is 38.5 µM; in assay [2], 38.2 µM; in [3] it was 52.1 µM; in assay [4], 30.4 µM; in assay [5], above 74 µM; in [6], 18.3 µM. Besides, the TGI in assay [7] was 23.9 µM; in assay [8], 21.6 µM; in assay [9], 33.9 µM; in assay [10], 25.2 µM.
For `COc1cccc2nc(Nc3cccc(NC(=O)c4ccc(N5CCN(C)CC5)c(C(F)(F)F)c4)c3)ccc12`, the GI50 in [1] is 2.79 µM; in assay [2], 0.854 µM; in [3] it was 0.874 µM; in assay [4], 1.12 µM; in assay [5] it was 1.07 µM; in [6] it was 1.52 µM. Further, the GI50 in assay [7] is 0.856 µM; in [8] it was 0.695 µM; in assay [9], 1.53 µM; in [10], 1.26 µM. Moreover, the TGI in assay [1] worked out at 9.39 µM; in [2] it was 4.03 µM; in assay [3], 1.57 µM; in assay [4] it was 3.46 µM; in assay [5], 2.93 µM; in assay [6], 5.03 µM. In addition, the TGI in [7] worked out at 1.74 µM; in assay [8], 1.68 µM; in assay [9], 4.99 µM; in assay [10] it was 4.51 µM.
As to `Cc1[nH]c(C(=O)Nc2cccc(OC3CCNCC3)c2)c(Cl)c1Cl`, the GI50 in assay [1] was 4.65 µM; in assay [2], 1.32 µM; in [3], 1.66 µM; in assay [4], 1.82 µM; in assay [5], 2.02 µM; in assay [6], 1.78 µM. Besides, the GI50 in [7] is 1.9 µM; in assay [8], 1.13 µM; in assay [9], 1.63 µM; in assay [10] it was 1.69 µM. Besides, the TGI in [1] was 18.1 µM; in [2], 4 µM; in [3], 3.16 µM; in assay [4], 3.39 µM; in [5], 5.16 µM; in assay [6] it was 3.23 µM. The TGI turned out to be 4.53 µM in assay [7], 2.65 µM in assay [8], 3.11 µM in [9] and 3.36 µM in assay [10].
Take `C=C(C(=O)c1ccccc1)C(NC(C)(C)C)c1ccccc1` (centres undefined): the GI50 in assay [1] is 2.13 µM; in assay [2], 2.38 µM; in [3], 1.46 µM; in assay [4] it was 1.91 µM; in [5], 5.56 µM; in assay [6] it was 1.45 µM. The GI50 in [7] was 3.38 µM; in assay [8], 4 µM; in assay [9] it was 2.37 µM; in assay [10] it was 3.26 µM. Further, the TGI in [1] stood at 4.6 µM; in assay [2], 6.83 µM; in [3], 2.97 µM; in assay [4], 7.42 µM; in assay [5] it was 75.9 µM; in assay [6], 2.82 µM. Also, the TGI in assay [7] worked out at 10.4 µM; in assay [8], 16.6 µM; in [9], 4.65 µM; in [10], 13 µM.
As for `CO/N=C(/C)COc1ccc2c(c1)oc(=O)c1cc(OC)ccc12`, the GI50 in [1] is above 100 µM; in [2] it was above 100 µM; in assay [3] it was above 100 µM; in assay [4], 97.6 µM; in [5], above 100 µM; in [6] it was above 100 µM. In addition, the GI50 was 95.3 µM in assay [7], 57.4 µM in assay [8], above 100 µM in [9] and above 100 µM in assay [10]. For the same compound, the TGI in assay [1], in assay [2], in assay [3], in assay [4], in [5] and in [6] was above 100 µM each time. Moreover, the TGI in assay [7], in [8], in assay [9] and in [10] was above 100 µM each time.
